From ChEMBL document CHEMBL5104130, “Synthesis of a tricyclic hexapeptide -via two consecutive ruthenium-catalyzed macrocyclization steps- with a constrained topology to mimic vancomycin's binding properties toward D-Ala-D-Ala dipeptide” (2022) come the findings set out here.

≈ marks a conversion by molar mass, not a printed value.

The subject of the experiment is Staphylococcus aureus. Description: Antibacterial activity against vancomycin-sensitive Staphylococcus aureus ATCC 49320 assessed as inhibition of bacterial growth incubated for 24 hrs. The class given is functional.

With `CN[C@H](CC(C)C)C(=O)N[C@@H]1CCCCn2nncc2-c2cc3cc(c2OC)-c2cnnn2CCCC[C@@H]2NC(=O)[C@@H](C/C=C/Cc4ccccc4NC2=O)NC(=O)[C@@H]3NC(=O)[C@H](C)NC1=O`, the MIC amounted to 37.5 µg/mL (≈ 40.8 µM).

As a reminder, the MIC is the lowest concentration that inhibits growth of the organism.
